Our source for the Activity values is ChEMBL document CHEMBL4190285, “Borapetoside E, a Clerodane Diterpenoid Extracted from Tinospora crispa, Improves Hyperglycemia and Hyperlipidemia in High-Fat-Diet-Induced Type 2 Diabetes Mice” (J Nat Prod, 2017).

SMILES strings stand for the structures. Activity calls are given as the source filed them. The rule behind the calls is not given here.

Assay [1] concerns Mus musculus. Put plainly: Down regulation of HMGCR mRNA expression in HFD-induced obese C57BL/6J mouse liver at 20 to 40 mg/kg, ip administered twice daily for 2.5 days measured at 2 hrs post last dose by RT-PCR analysis. Type of assay: functional, organism-based.
Assay [2] relates to Mus musculus. The assay can be described thus: Antihyperglycemic activity in high fat diet-induced obese C57BL/6J mouse assessed as reduction in blood glucose level at 40 mg/kg, ip administered as single dose measured after 36 hrs. In kind it is functional, organism-based.
Assay [3] concerns Mus musculus. Put plainly: Antihyperlipidemic activity in high fat diet-induced obese C57BL/6J mouse assessed as reduction in liver free fatty acid level at 20 to 40 mg/kg, ip administered twice daily for 2.5 days measured at 2 hrs post last dose. In kind it is functional, organism-based.
Assay [4] concerns Mus musculus. Put plainly: Down regulation of ABCG8 mRNA expression in HFD-induced obese C57BL/6J mouse liver at 20 to 40 mg/kg, ip administered twice daily for 2.5 days measured at 2 hrs post last dose by RT-PCR analysis. In kind it is functional, organism-based.
Assay [5] concerns Mus musculus. Put plainly: Antihyperlipidemic activity in high fat diet-induced obese C57BL/6J mouse assessed as serum free fatty acid levels at 40 mg/kg, ip administered twice daily for 2.5 days measured at 2 hrs post last dose (reference value: 1.41 +/- 0.3 mmol/L). Type of assay: functional.

`COC(=O)C1=CCC[C@H]2[C@](C)(C[C@@H](O[C@@H]3O[C@H](CO)[C@@H](O)[C@H](O)[C@H]3O)c3ccoc3)[C@H]3C[C@H](OC3=O)[C@@]12C`: the result in assay [1], in assay [2], in assay [3] and in assay [4] was Active. Also, the Activity in assay [5] came out at 0.82 mmol/L.
